Test results taken from patent US20110166078A1, “OLIGOSACCHARIDE COMPOUNDS FOR USE IN MOBILISING STEM CELLS” (ENDOTIS PHARMA, priority 2008, published 2011).

Columns and labels:
[1] = biological target: T1, VEGF-A (Homo sapiens, UniProt P15692); assay: VEGF-A/heparin competition assay by SPR (Biacore); type: binding; details: 10 nM VEGF-A, biotinylated low molecular weight heparin, Sensorchip SA
T1 sequence (P15692 27-191 isoform P15692-4): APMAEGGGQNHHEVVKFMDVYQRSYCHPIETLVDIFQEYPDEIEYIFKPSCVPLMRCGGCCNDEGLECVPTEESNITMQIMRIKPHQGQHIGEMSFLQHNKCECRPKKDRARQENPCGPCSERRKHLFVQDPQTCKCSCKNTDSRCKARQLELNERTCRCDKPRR
Method: (§1) Heparin or low molecular weight heparin (6 kDa) from SIGMA were biotinylated at the reducing end and immobilized on a Biacore sensorchip. Different concentrations of the compounds of the present invention were co-incubated at a fixed concentration of targets: FGF-2, PDGF-β, VEGF-A or SDF-1α for 30 minutes. The mixture was then injected onto the streptavidin control (control reference) and HP surfaces. Only free growth factor (GF) or chemokine, i.e. the target molecules not bound to compounds of the present invention, were trapped on the heparin surface. From the binding of free targets on heparin, the percentages of inhibition were calculated and then reported in function of compound concentrations. The plot was fitted with a four-parameter model and IC50 was calculated. The 0% inhibition value was obtained for the injection of the studied target in running-buffer, and the 100% inhibition value was obtained for the injection of the studied target co-incubated with 10 μM of low molecular weight heparin 6 kDa.
A VEGF-A/heparin competition assay using the Biacore technology was performed using the following conditions: 10 nM VEGF-A, biotinylated low molecular weight heparin, Reference Streptavidin, Sensorchip SA, HBS-P, Regeneration NaCl 2M.
(§2) IC50 values of compounds of the present invention were determined using the Biacore technology for the growth factor and chemokine/heparin competition assays that contained the following proteins: VEGF-A, SDF-1α, FGF-2 and PDGF-β.

[2] = tested on: control and VEGF-A-stimulated angiogenesis (endothelial tubules, HUVEC/NHDF co-culture); assay: In vitro angiogenesis assay (endothelial tubule formation, AngioKit); type: cell-based, human; details: 30 μM compound; anti-CD31 ELISA and AngioSys image analysis; FIGS. 13-15
Description: These experiments are also known as endothelial tubule formation assays and they are used to evaluate the compound effects on in vitro angiogenesis (the neo-formation of blood vessels from pre-existing ones). This process is critical in tumour development as bloodstream brings all the necessary nutrients and oxygen to cancer cells.
The assay uses a commercially available product (AngioKit) specially designed for screening experiments. The product consists of a 24 or 96-well culture plate containing endothelial and fibroblast cells. A similar assay has been developed “in-house” using 48-well culture plates.
Endothelial cells will, on a ten-day period, develop into a branched network of endothelial tubules or “primitive” blood vessels. This process requires a co-culture with fibroblasts, these latter cells secreting essential growth factors for endothelial cells. At the end of the incubation period (about ten days), angiogenesis is monitored both by ELISA and image analysis software quantifying different blood vessel parameters (number and average length of tubules, field area, number of junctions for example). All reagents and material (except the oligosaccharide compounds, the VEGF-A and the 48-well plate AngioKits) are bought from TCS CellWorks (http://www.tcscellworks.co.uk) which provides: • 24 and 96-well plate AngioKits (including culture medium) • Anti-CD31 (a cell marker specifically expressed on endothelial cells) reagents for ELISA and tubule staining procedures. • AngioSys image analysis software
For home-made 48-well plate AngioKits, NHDF and HUVEC cells were independently purchased while TCS CellWorks culture medium and protocol were used.
The cell medium is replaced with fresh one (day 1) and cells are incubated at 37° C. with the compounds of interest (oligosaccharides and/or angiogenic proteins, such as growth factors). During the course of the experiment, the culture medium (including oligosaccharides and/or angiogenic proteins) is replaced at days 4 and 7.
At day 10, the assay is terminated by the labelling of endothelial cells by an ELISA procedure (indirect colorimetric titration of the endothelial cell number through dosage of the endothelial-specific CD31 marker) and the staining of endothelial tubules. Photographs of stained tubules are taken and analysed with the AngioSys image analysis software.
In the following assay the effects of compounds 239, 240, 246, 247, 248, 249, 252, 254, 255 and 257 on in vitro angiogenesis were measured (all compounds were added at the 30 μM concentration). […] For the data presented in FIG. 13, AngioSys image analyses are shown on FIG. 14. Photographs of endothelial tubules are shown on the side of the anti-CD31 ELISA (see FIGS. 13 and 15).

[3] = biological target: T2, heparanase (Homo sapiens, UniProt Q9Y251); assay: Anti-heparanase activity (fondaparinux degradation / factor Xa chromogenic assay); type: biochemical
T2 sequence (Q9Y251 158-543 limits assumed): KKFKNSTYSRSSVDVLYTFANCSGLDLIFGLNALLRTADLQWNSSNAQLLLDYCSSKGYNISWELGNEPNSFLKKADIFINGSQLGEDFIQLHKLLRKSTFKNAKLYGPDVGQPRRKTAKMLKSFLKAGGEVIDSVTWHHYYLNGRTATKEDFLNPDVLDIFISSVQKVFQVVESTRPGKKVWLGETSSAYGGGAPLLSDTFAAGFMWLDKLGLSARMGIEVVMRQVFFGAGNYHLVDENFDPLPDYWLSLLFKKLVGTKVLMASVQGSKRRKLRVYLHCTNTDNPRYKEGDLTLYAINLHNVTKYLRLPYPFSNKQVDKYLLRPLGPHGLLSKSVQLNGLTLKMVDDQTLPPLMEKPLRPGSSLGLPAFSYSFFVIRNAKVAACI
T2 sequence (Q9Y251 36-109 limits assumed): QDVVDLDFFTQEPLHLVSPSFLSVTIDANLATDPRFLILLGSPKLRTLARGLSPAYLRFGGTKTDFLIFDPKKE
Method: To determine the compounds IC50 values for the heparanase target, we adapted an assay based on the ability of heparanase to degrade fondaparinux (Sanofi patent No. 287 3377 FR), and the capacity of fondaparinux to inhibit factor Xa activity via AT III binding. This assay was carried out on a STA Compact robot (Diagnostica Stago). Briefly, different concentrations of compounds were added to a mixture containing the heparanase enzyme and fondaparinux and after a time-fixed incubation period, AT III, Factor Xa and a chromogenic substrate (CBS 31.39) were sequentially added to the reaction mix. Production of paranitroanilin resulting from the degradation of the chromogenic substrate CBS 31.39 was monitored at 405 nm. Data obtained for the different concentration points were plotted using a four-parameter fit model and IC50 determined.

[4] = biological target: FGF-2 (Homo sapiens, UniProt P09038); assay: FGF-2/heparin competition assay by SPR (Biacore); type: binding; details: 10 nM FGF-2, biotinylated heparin, Sensorchip C1
Method: as §1
A FGF-2/heparin competition assay using the Biacore technology was performed in the following conditions: 10 nM FGF-2, biotinylated heparin, Reference Streptavidin, Sensorchip C1, PBS-T 0.02%, Regeneration NaCl 2M
as §2

Sequence of FGF-2 (P09038 143-288, species assumed): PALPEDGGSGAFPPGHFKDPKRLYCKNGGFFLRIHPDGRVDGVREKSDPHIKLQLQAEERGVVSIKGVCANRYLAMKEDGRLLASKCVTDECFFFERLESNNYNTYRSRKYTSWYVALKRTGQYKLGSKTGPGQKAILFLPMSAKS

Row | SMILES | IC50 [1] | inhibition of control and/or VEGF-A-stimulated angiogenesis [2] | IC50 [3] | IC50 [4]
1 | C#CCCCOC1OC(COS(=O)(=O)[O-])C(OC2OC(C(=O)[O-])C(OC3OC(COS(=O)(=O)[O-])C(OC4OC(C(=O)[O-])C(OC5OC(COS(=O)(=O)[O-])C(OC6OC(C(=O)[O-])C(OC7OC(COS(=O)(=O)[O-])C(OC8OC(C(=O)[O-])C(OCc9ccccc9)C(OCc9ccccc9)C8OS(=O)(=O)[O-])C(OCc8ccccc8)C7NS(=O)(=O)[O-])C(OCc7ccccc7)C6OS(=O)(=O)[O-])C(OCc6ccccc6)C5NS(=O)(=O)[O-])C(OCc5ccccc5)C4OS(=O)(=O)[O-])C(OCc4ccccc4)C3NS(=O)(=O)[O-])C(OCc3ccccc3)C2OS(=O)(=O)[O-])C(OCc2ccccc2)C1NS(=O)(=O)[O-].[Na+].[Na+].[Na+].[Na+].[Na+].[Na+].[Na+].[Na+].[Na+].[Na+].[Na+].[Na+].[Na+].[Na+].[Na+].[Na+] (centres unmarked) [Compound 240] | 4.8 nM | inhibition of control and/or VEGF-A-stimulated angiogenesis | 0.42 nM | 3.6 nM
2 | C#CCCCOC1OC(COS(=O)(=O)[O-])C(OC2OC(C(=O)[O-])C(OC3OC(COS(=O)(=O)[O-])C(OC4OC(C(=O)[O-])C(OC5OC(COS(=O)(=O)[O-])C(OC6OC(C(=O)[O-])C(OCc7ccccc7)C(OCc7ccccc7)C6OS(=O)(=O)[O-])C(OCc6ccccc6)C5NS(=O)(=O)[O-])C(OCc5ccccc5)C4OS(=O)(=O)[O-])C(OCc4ccccc4)C3NS(=O)(=O)[O-])C(OCc3ccccc3)C2OS(=O)(=O)[O-])C(OCc2ccccc2)C1NS(=O)(=O)[O-].[Na+].[Na+].[Na+].[Na+].[Na+].[Na+].[Na+].[Na+].[Na+].[Na+].[Na+].[Na+] (centres unmarked) [Compound 239] | 5.2 nM | inhibition of control and/or VEGF-A-stimulated angiogenesis | 9.2 nM | 4.5 nM
